Experimental data reported in patent publication US11806359B2 (priority 2020, dated 2023).

Experiments:
[1] = system: HTLV-1+ SLB1 lymphoma T-cell-line; assay: Cytotoxicity/apoptosis in HTLV-1+ SLB1 cells, Annexin V-FITC/PI staining; type: cell-based; details: 72 hrs
Method: SLB1 T-cells were treated with increasing concentrations (10, 50, and 100 μg/ml) of oleandrin or a N. oleander extract for 72 hrs as described herein. As a negative control, the cells were also treated with increasing amounts (1.5, 7.5, and 15 μg) of the vehicle solution which corresponded to the volumes used in the drug-treated cultures. Cyclophosphamide (50 μM; Sigma-Aldrich)-treated cells were included as a positive control for apoptosis. Then, the samples were washed and stained with Annexin V-FITC and propidium iodide (PI) and analyzed by confocal fluorescence-microscopy. The relative percentages of Annexin V-FITC and/or PI-positive cells were quantified by fluorescence-microscopy and counting triplicate visual fields using a 20× objective lens.
To assess the relative cytotoxicity of the oleandrin compound, extract of N. oleander, or the Vehicle control in treated cell cultures, 2×10^4 HTLV-1+ SLB1 lymphoma T-cells or activated/cultured huPBMCs were plated in 300 μl of complete medium, supplemented with antibiotics, and maintained at 37.0 under 10% CO2 in a humidified incubator. The cultures were treated with either increasing concentrations (10, 50, and 100 μg/ml) of oleandrin or N. oleander extract, or the Vehicle control ([…]) and incubated for 72 hrs. […] The total numbers of cells per field were quantified by microscopy using a DIC phase-contrast filter.

[2] = system: SARS-CoV-2; assay: SARS-CoV-2 viral titer and infectivity of progeny virions in Vero cells (Example 28); type: cell-based; details: for reduction in virus load: oleandrin pretreatment
Method: Further proof of the efficacy of oleandrin (oleandrin-containing composition) against coronavirus, e.g. SARS-CoV-2 (COVID-19), was obtained through in vitro evaluation according to Example 28, wherein Vero cells were pretreated with oleandrin and then infected with SARS-CoV-2. Following infection of the cells, the extracellular virus and oleandrin was washed away, and the infected cells were then treated with oleandrin (FIG. 23A: 1 microg/mL in 0.1% v/v aqueous DMSO; FIG. 23C: 0.1 microg/mL in 0.01% v/v aqueous DMSO) or just aqueous DMSO as control vehicle (FIG. 23B: 0.1% v/v aqueous DMSO; FIG. 23D: 0.01% v/v aqueous DMSO). […] The results further indicate that oleandrin inhibits infectivity of progeny virus by a) about 1 log10 without continuous drug treatment; and b) about >3 log10 with continuous drug treatments (without toxicity).
A stock solution of oleandrin in methanol (10 mg oleandrin/mL) was prepared. The stock solution was used to prepare incubation media containing DMSO (0.1% or 0.01% v/v in aqueous culture medium RPMI 1640 and oleandrin (20 microg/mL, 10 microg/mL, 1.0 microg/mL, or 0.1 microg/mL). The incubation solutions are as follows.
Uninfected Vero cells (target initial cell count 1×10^6) in culture were incubated in each of the indicated incubation media in vials for 30 min at 37° C. A viral inoculate of SARS-CoV-2 was then added to each vial to achieve a target initial viral titer (about PFU/mL 1×10^4). The target MOI (multiplicity of infection) of about 0.1. The solutions were incubated for an additional 2 h at 37° C. to achieve infection of the Vero cells. The infected Vero cells were then washed with control vehicle to remove extracellular virus and oleandrin. New aliquots of each incubation medium were added to each respective vial of infected Vero cells. Those receiving oleandrin in the second aliquot were denoted as “+ treatment Post-infection”, and those not receiving oleandrin in the second aliquot were denoted as “− treatment Post-infection” (FIGS. 23A-23D). The viral titer for each vial was determined at about 24 h and about 48 h after infection.
The data acquired included quantity of virus produced, infectivity of progeny virus, and relative safety (nontoxicity) of oleandrin in infected and uninfected cells.

CO[C@H]1C[C@H](O[C@H]2CC[C@@]3(C)[C@H](CC[C@@H]4[C@@H]3CC[C@]3(C)[C@@H](C5=CC(=O)OC5)[C@@H](OC(C)=O)C[C@]43O)C2)O[C@@H](C)[C@@H]1O [oleandrin]
cytotoxicity/apoptosis at the lowest concentration ([1]; 10 μg/ml): did not induce significant cytotoxicity/apoptosis | cytotoxicity compared with the Vehicle control ([1]; treated HTLV-1+ SLB1 cells): not significantly higher than the Vehicle control | reduction of initial viral infection ([2]; just 30 min preincubation of Vero cells): only slightly effective | reduction in virus load ([2]; 24-h time): 1368 fold | reduction in virus load ([2]; 48-h time point): 369 fold | inhibition of infectivity of progeny virus ([2]; with continuous drug treatments (without toxicity)): > 3 log10 | inhibition of infectivity of progeny virus ([2]; without continuous drug treatment): about 1 log10
